# According to patent US20050277600A1, “Compositions and methods of use of dimer digallates” (Mars, Incroporated, priority 2004, published 2005):
# How the values were obtained:
# [1] = system: human umbilical vein endothelial cell (HUVEC) NO production; experiment: HUVEC NO production (NOx in cell culture medium, chemiluminescence); assay type: cell-based; conditions: for HUVEC Cells NOx, 24 hr / HUVEC Cells NOx, 5 d / HUVEC Cells NOx, 2 hr: Table 2 summary
# Protocol: Several compounds were investigated for their effect on nitric oxide (NO) production and vasorelaxation using serum-free human umbilical vein endothelial cell (HUVEC) culture system in vitro and rabbit aortic ring model ex vivo, respectively. NO production by endothelial cells and relaxation of pre-constricted aortic rings are two main markers for evaluating vascular effects of test compounds.
# HUVECs obtained from a single donor were cultured in serum free, low protein (0.5 g/l), antibiotic-free cell culture medium supplemented with essential growth factors, nutrients and minerals. […] The cell culture medium was substituted with apo-transferrin, superoxide dismutase, and catalase to exclude secondary effects of test compounds involving their auto-oxidation mediated hydrogen peroxide formation.
# NO production was evaluated by measuring the total amount of all major nitric oxide end products (NOx, including nitrate, nitrite, nitrosothiols) present in the cell culture medium. […] The amount of NO released from the culture medium was subsequently evaluated by measuring the chemiluminescence emitted during the stoichiometrical reaction between ozone and NO using a NO Analyzer (Sievers Instruments, Inc. Boulder, Colo.).
# The data presented herein were obtained from three experiments and were expressed as the concentration of NO present (in μmol/l) (as NOx) in the cell culture medium+/−standard deviation (SD). The data were corrected for the NOx intrinsically present in the fully supplemented cell culture medium and normalized with respect to the volume of media from which the sample was drawn. Data were analyzed using Student's t-test with a 95% level of confidence. P values equal to or less than 0.05 were defined as statistically significant.
# For the acute effect test, HUVECs were incubated with the test compounds for 2 hours at concentrations of 100 nM, 1 μM, and 10 μM at 37° C. and 5% CO2. […] (FIG. 1)
# For the chronic effect test, HUVECs were incubated with 5 subsequent doses of test compounds, each for 24 hours. After each 24 hour treatment, culture medium was replaced.
# For the acute effect test, HUVECs were incubated with a single dose of the test compounds for 24 hours at concentrations of 100 nM, 1 μM, and 10 μM at 37° C. and 5% CO2.
# HUVEC = experiment: HUVEC-mediated MTT reduction (toxic effects); conditions: for cell-mediated MTT reduction / MTT reduction: Experiment 2, chronic, 5 x 24 hours; for cell-mediated MTT reduction: 10 μM (20 μM for the Epicatechin gallates); for cell-mediated reduction of MTT: 1 μM; for MTT reduction: 1 μM or 2 μM for EGC
# Protocol: Cell counts and total protein were used to assess intra-assay variation. Potential toxic effects of tested compounds were also monitored (MTT reduction was measured).
# rabbit aortic rings = experiment: Relaxation of norepinephrine pre-constricted rabbit aortic rings ex vivo
# Protocol: Several compounds were investigated for their effect on nitric oxide (NO) production and vasorelaxation using serum-free human umbilical vein endothelial cell (HUVEC) culture system in vitro and rabbit aortic ring model ex vivo, respectively. NO production by endothelial cells and relaxation of pre-constricted aortic rings are two main markers for evaluating vascular effects of test compounds. Effect of different procyanidins on endothelium-dependent relaxation was tested in an ex vivo experiment performed as previously described by Karim et al., J. Nutrl Suppl., 130 (8S): […]-[…] (2000), the relevant portions of which are hereby incorporated herein by reference. The advantage of using this method is that it assesses functional vascular end points. […] In summary, rabbit aortic rings were obtained from male New Zealand White rabbits. Following isolation, the rings were mounted in oxygenated Kreb's buffer, and pre-constricted with norepinephrine (NE) (10^-6 M). […] A positive control acetylcholine (10^-9 to 10^-4 M) and a negative control L-NAME were included in the experiment. Use of L-NAME, which is a NO synthase (NOS) inhibitor, allows for differentiating between endothelium dependent and endothelium independent relaxation events. […] The relaxation response was measured as a function of the decrease in the tension (g) exerted by the aortic rings over time […]. Data obtained were expressed as a percent relaxation of the norepinephrine (NE) constricted rings. The same statistical approach as described above was used. Dose response curves were obtained by plotting the average percent relaxation (+/-SE) against the concentrations used.
# [2] = system: human umbilical vein endothelial cell (HUVEC) NO production; experiment: HUVEC NO production (NOx in cell culture medium, chemiluminescence); assay type: cell-based; conditions: Experiment 1, 24 h after single dose, 1 mM (so in the source)
# [3] = Experiment 2, single dose, 24 hours, 1 μM
# [4] = Experiment 2, single dose, 24 hours
# [5] = Experiment 2, single dose, 24 hours, 10 μM
# [6] = Experiment 1, 24 h after single dose, 10 μM
# [7] = Experiment 1, acute, 2 hours incubation, 10 μM
# [8] = Experiment 1, chronic, 5 subsequent 24 hour doses
SMILES,"NO production [1, 3]","HUVEC Cells NOx, 5 d [1]",cell-mediated MTT reduction (HUVEC),cell-mediated reduction of MTT (HUVEC; [4]),"relaxation response, percent relaxation of NE constricted rings (rabbit aortic rings; Experiment 2, 10^−4 M)","Max Relaxation (rabbit aortic rings; Experiment 3, 10 μM and 100 μM)","NO production [1, 6]","modulation of NO production [1, 7]","modulation of NO production [1, 5]","HUVEC Cells NOx, 2 hr [1]","HUVEC Cells NOx, 24 hr [1]",NO production [2],MTT reduction (HUVEC),"relaxation response, percent relaxation of NE constricted rings (rabbit aortic rings; Experiment 1, 10^−4 M)","relaxation response, percent relaxation of NE constricted rings (rabbit aortic rings; Experiment 1, 10^−5 M)",also measured
"O=C(O[C@H]1[C@@H](c2c(O)cc(O)c3c2O[C@H](c2ccc(O)c(O)c2)[C@H](OC(=O)c2cc(O)c(O)c(O)c2)C3)c2c(O)cc(O)cc2O[C@@H]1c1ccc(O)c(O)c1)c1cc(O)c(O)c(O)c1 [C-(4β→8)-EC digallate, (+)-Catechin-(4β,8)-(−)-Epicatechin Digallate]",statistically significant increases in NO production,No significant NOx increase;,significant decline of cell-mediated MTT reduction,no effect on cell-mediated reduction of MTT,72.4+/−17.4%,72%,,,,,,,,,,"HUVEC Cells NOx, 24 hr ([1]; 1 µM): 1 uM, sign. Incr. NOx; 10 uM,; HUVEC Cells NOx, 24 hr ([1]; 10 µM): no sign. effect on NOx, Cell; loss of HUVEC MTT reduction as compared to controls (HUVEC; [5]): 47%; HUVEC Cells cell toxicity, 24 hr (HUVEC; Table 2 summary, 24 hr, 10 uM): toxicity; relaxation response (rabbit aortic rings; Experiment 2, 10^−5 M): 33.1%"
"O=C(O[C@@H]1[C@@H](c2c(O)cc(O)c3c2O[C@H](c2ccc(O)c(O)c2)[C@H](OC(=O)c2cc(O)c(O)c(O)c2)C3)c2c(O)cc(O)cc2O[C@@H]1c1ccc(O)c(O)c1)c1cc(O)c(O)c(O)c1 [EC-(4β→8)-EC digallate, (−)-Epicatechin-(4β,8)-(−)-Epicatechin Digallate]",statistically significant increases in NO production,No significant NOx increase;,significant decline of cell-mediated MTT reduction,no effect on cell-mediated reduction of MTT,,74%,increased NO production,statically significant ability to modulate NO production,statistically significant ability to modulate NO production,"10 uM, sign. NOx","1 and 10 uM, sign. NOx inc.",increased NO production,decline in MTT reduction,73.55+/−7.08%,44.6+/−16.6%,"NO production [1, 8]: attenuation of NO production; decline in MTT reduction (HUVEC; [8]): 55%"
"Oc1cc(O)c2c(c1)O[C@H](c1ccc(O)c(O)c1)[C@H](O)[C@H]2c1c(O)cc(O)c2c1O[C@H](c1ccc(O)c(O)c1)[C@@H](O)C2 [EC-(4β→8)-C, (−)-Epicatechin-(4β,8)-(+)-Catechin]",statistically significant increases in NO production,"10 uM, significant NOx",,no effect on cell-mediated reduction of MTT,,,increased NO production,statically significant ability to modulate NO production,statistically significant ability to modulate NO production,"10 uM, sign. NOx","1 uM and 10 uM, sign. Incr. in",increased NO production,,58.36+/−11.35%,42.7+/−11.81%,"HUVEC NO production ([1]; Experiment 2, chronic, 5 subsequent 24 hour doses): increase in NO production which was significantly lower as compared to single dose treatment; NO modulating effect after re-purification ([1]; re-purified compound (first lot contaminated with A1 dimer)): no longer exhibited the NO modulating effect"
"O=C(O[C@H]1[C@H](c2c(O)cc(O)c3c2O[C@H](c2ccc(O)c(O)c2)[C@H](OC(=O)c2cc(O)c(O)c(O)c2)C3)c2c(O)cc(O)cc2O[C@@H]1c1ccc(O)c(O)c1)c1cc(O)c(O)c(O)c1 [C-(4α→8)-EC digallate, (+)-Catechin-(4α,8)-(−)-Epicatechin Digallate]",,No significant NOx increase;,significant decline of cell-mediated MTT reduction,,40.7+/−9.2%,,,,,,no effect,,decline in MTT reduction,,,"Max Relaxation (rabbit aortic rings; Experiment 3, 100 μM): 41%; Aortic Ring Effective Conc, (rabbit aortic rings; Table 1 summary): 100 µM"
